The record followed here is ChEMBL document CHEMBL1132357, “Synthesis and properties of 3-(2-hydroxyethyl)-3-n-pentyldiazirine, a photoactivable general anesthetic” (J Med Chem, 1999).

Molecules are shown by their SMILES.

The assay in a line: The compound was tested for anesthetic potency in tadpoles. Format: functional, frog.

The EC50 is the concentration needed to bring the measured effect to its halfway point. Read a low EC50 as higher potency in that assay. Compound `CCCCCC1(CCO)N=N1` had an EC50 of 160 µM.
